This is an account of results in patent US20260216175A1, “COMPLEMENT INHIBITION” (Apellis Pharmaceuticals, Inc., priority 2023, published 2026).

One assay relates to complement activation.
Assay: not given
The note with it: fold activity relative to compstatin amidated at the C-terminus; based on published data and assays (WO2004/026328, WO2007044668, Mallik 2005; Katragadda 2006); cited from earlier work.
As to “Ac-ICV(2-Nal)QDWGAHRCT-CONH2 [Ac-V4(2-Nal)/H9A]”, the Activity over compstatin is 99 × more.

With “Ac-ICV(Bpa)QDWGAHRCT-COOH [Ac-V4(Bpa)/H9A —OH]”, the Activity over compstatin is on record as 49 × more.

Consider “Ac-ICV(2-IgI)QDWGAHRCT-CONH2 [Ac-V42IgI/H9A]”, for which the Activity over compstatin is given as 39 × more.

In the case of “Ac-ICVWQDWGAHRCdT-COOH [Ac-V4W/H9A/T13dT —OH]”, the Activity over compstatin is 55 × more.

Regarding “Ac-ICVWQDWGAHRCT-CONH2 (Ac-ICVWQDWGAHRCT-NH2; cysteine pairing not given here) [Ac-V4W/H9A, compstatin analog]”, the Activity over compstatin is reported as 45 × more.

As for “Ac-ICV(2-IgI)QDWGAHRCT-COOH [Ac-V42IgI/H9A —OH]”, the Activity over compstatin is 37 × more.

For the compound “H-GICV(6fW)QD(6fW)GAHRCTN-COOH [+G/V4(6fW)/W7(6fW)H9A + N—OH]”, the Activity over compstatin is on record as 126 × more.

In the case of “Ac-ICVDhtQDWGAHRCT-COOH [Ac-V4Dht/H9A —OH]”, the Activity over compstatin was 5 × more.

As for “Ac-ICV(Bpa)QDWGAHRCT-CONH2 [Ac-V4(Bpa)/H9A]”, the Activity over compstatin is 86 × more.

Consider Ac-ICVVQDWGHHRCT-CONH2 [Ac-compstatin], for which the Activity over compstatin was 3 × more.

On to “Ac-ICVWQD(5fW)GAHRCT-CONH2 [Ac-V4W/W7(5fW)/H9A]”, for which the Activity over compstatin is on record as 121 × more.

Consider “Ac-ICV(1-Nal)QDWGAHRCT-COOH [Ac V4(1-Nal)/H9A —OH]”, for which the Activity over compstatin was 30 × more.

In the case of “Ac-ICV(2-Nal)QDWGAHRCT-COOH [Ac V4(2-Nal)/H9A —OH]”, the Activity over compstatin is on record as 38 × more.

Regarding Ac-ICVYQDWGAHRCT-CONH2 [Ac-V4Y/H9A], the Activity over compstatin is 14 × more.

Test system in the next assay: not listed separately
The experiment in a line: biological activity of enantiomers (assay not specified). The note with it: first eluting vs second eluting enantiomer.
Regarding `COc1cc(C)c2[nH]ccc2c1CN1CCN(CC(F)F)CC1c1ccc(C(=O)O)c(O)c1` (single isomer, unassigned) [Example 68, 4-(4-(2,2-difluoroethyl)-1-((5-methoxy-7-methyl-1H-indol-4-yl)methyl)piperazin-2-yl)-2-hydroxybenzoic acid], the “biological activity, comparison of enantiomers” value is listed as “more active enantiomer”.
